Results: patent US5202310A, “Cyclosporine metabolites” (priority 1990, dated 1993)
Several values for one entry are separate records, joined by “and”; a condition that tells them apart may be missing. Equal values may be shown once. Read-outs that look alike come from different tables or passages of the source.

How the values were obtained:
L2 cells [1] = conditions: murine lung cell line L2
lymphocyte proliferation = conditions: Freed 1987; OL-17 followed by OL-1 and OL-21; cited from earlier work
[2] = tested on: Renal glomerular mesangial cells; conditions: CM effects only at concentrations greater than 1 and 5 μg/ml
L2 cells [3] = conditions: murine lung cell line L2; remark: listed apart in the source
LLC-PK1 cells [4] = conditions: renal epithelial cell line LLC-PK1; 19 h + 5 h incubation
[5] = for Amount of cyclosporine per liter of bile as determined with internal standard: 100 ml bile extracted, analytical gradient HPLC with CsA internal standard; for Mean % of total concentration of cyclosporine (mean value, n = 5): bile of five CsA treated liver transplant individuals
[6] = tested on: Renal glomerular mesangial cells; conditions: CsA: to 1 ng/ml, CM effects only at concentrations greater than 1 and 5 μg/ml
LLC-PK1 cells [7] = conditions: renal epithelial cell line LLC-PK1
[8] = tested on: Renal glomerular mesangial cells; conditions: CM effects only at concentrations greater than 1 and 5 μg/ml; remark: listed apart in the source
LLC-PK1 cells [9] = conditions: renal epithelial cell line LLC-PK1; CsA: to 1 ng/ml
L2 cells [10] = conditions: murine lung cell line L2; remark: listed apart in the source
IL2 production = conditions: Freed 1987; OL-17 followed by OL-1 and OL-21; cited from earlier work
IL2 = test: Effect on IL2 (method of Freed); format: cell-based; conditions: compared with cyclosporine A
Description: (§1) The effect of CM Peak H on IL1, IL2 and IL2 receptor activity was studied using the method as described in Freed, B. M., Transplantation 43:123, 1987.

IL1 = test: Effect on IL1 (method of Freed); format: cell-based; conditions: compared with cyclosporine A
Description: as §1

IL2 receptors = test: Effect on IL2 receptor activity (method of Freed); format: cell-based; conditions: compared with cyclosporine A
Description: as §1

phospholipase A2 = conditions: at concentrations of 1 mg/ml or greater
[11] = CM extracted from bile of liver transplant recipients, relative area by UV spectroscopy
rat = conditions: Ryffel 1988; cited from earlier work

Structure (SMILES): C/C=C/C[C@@H](C)[C@@H](O)[C@H]1C(=O)N[C@@H](CC)C(=O)N(C)CC(=O)N(C)[C@@H](CC(C)C)C(=O)N[C@@H](C(C)C)C(=O)N(C)[C@@H](CC(C)C)C(=O)N[C@@H](C)C(=O)N[C@H](C)C(=O)N(C)[C@@H](CC(C)(C)O)C(=O)N(C)[C@@H](CC(C)C)C(=O)N(C)[C@@H](C(C)C)C(=O)N1C [OL-1, 9-hydroxy cyclosporine A]
- Inhibition of DNA synthesis (L2 cells [1]): no inhibitory effects
- Ability to inhibit lymphocyte proliferation in a mixed lymphocyte reaction, compared to CsA (lymphocyte proliferation): comparable effects
- Inhibition of DNA synthesis [2]: some inhibitory effects
- Inhibition of RNA synthesis (L2 cells [3]): no inhibitory effects
- Inhibition of DNA synthesis (LLC-PK1 cells [4]): no inhibitory effects
- Amount of cyclosporine per liter of bile as determined with internal standard [5]: 364 µg/L
- Inhibition of protein synthesis [6]: some inhibitory effects
- Inhibition of RNA synthesis (LLC-PK1 cells [7]): no inhibitory effects
- Inhibition of RNA synthesis [8]: some inhibitory effects
- Inhibition of protein synthesis (LLC-PK1 cells [9]): no inhibitory effects
- Inhibition of protein synthesis (L2 cells [10]): no inhibitory effects
- Ability to inhibit IL2 production, compared to CsA (IL2 production): comparable effects

Structure (SMILES): C/C=C/C[C@@H](C)[C@@H](O)[C@H]1C(=O)N[C@@H](CC)C(=O)N(C)CC(=O)N(C)[C@@H](CC(C)C)C(=O)N[C@@H](C(C)C)C(=O)N(C)[C@@H](CC(C)C)C(=O)N[C@@H](C)C(=O)N[C@H](C)C(=O)N(C)[C@@H](CC(C)(C)O)C(=O)N[C@@H](CC(C)C)C(=O)N(C)[C@@H](C(C)C)C(=O)N1C [CM Peak H]
- Inhibiting formation of, and action of IL2 (IL2): as effective as cyclosporine A
- Inhibition of DNA synthesis (L2 cells [1]): no inhibitory effects
- Inhibition of DNA synthesis [2]: some inhibitory effects
- Inhibition of DNA synthesis ([2]; listed as Metabolite H): least inhibitory effects
- Inhibition of RNA synthesis (L2 cells [3]): no inhibitory effects
- Inhibition of DNA synthesis (LLC-PK1 cells [4]): no inhibitory effects
- Amount of cyclosporine per liter of bile as determined with internal standard [5]: 536 µg/L
- Amount in RIA profile of bile ([5]; bile, gradient HPLC/polyclonal antibody RIA): above 250 μg/L CsA equivalents
- Inhibiting formation of, and action of IL1 (IL1): as effective as cyclosporine A
- Inhibition of protein synthesis [6]: some inhibitory effects
- Inhibition of protein synthesis ([6]; listed as Metabolite H): least inhibitory effects
- Inhibition of RNA synthesis (LLC-PK1 cells [7]): no inhibitory effects
- Inhibition of RNA synthesis [8]: some inhibitory effects
- Inhibition of RNA synthesis ([8]; listed as Metabolite H): least inhibitory effects
- Inhibiting formation of, and action of IL2 receptors (IL2 receptors): as effective as cyclosporine A
- Inhibition of phospholipase A2 activity (phospholipase A2): no such inhibitory activity
- Percentage of total CM ([11]; listed as H): 6.3%
- Percentage of total CM ([11]; listed as peak H): 6.33%
- Inhibition of protein synthesis (LLC-PK1 cells [9]): no inhibitory effects
- Inhibition of protein synthesis (L2 cells [10]): no inhibitory effects

Structure (SMILES): CC[C@@H]1NC(=O)[C@H]([C@H](O)[C@H](C)C/C=C/CO)N(C)C(=O)[C@H](C(C)C)N(C)C(=O)[C@H](CC(C)C)N(C)C(=O)[C@H](CC(C)C)N(C)C(=O)[C@@H](C)NC(=O)[C@H](C)NC(=O)[C@H](CC(C)C)N(C)C(=O)[C@H](C(C)C)NC(=O)[C@H](CC(C)C)N(C)C(=O)CN(C)C1=O [OL-17, 1-hydroxy cyclosporine A]
- Inhibition of DNA synthesis (L2 cells [1]): no inhibitory effects
- Ability to inhibit lymphocyte proliferation in a mixed lymphocyte reaction, compared to CsA (lymphocyte proliferation): comparable effects
- Inhibition of DNA synthesis [2]: some inhibitory effects
- Inhibition of RNA synthesis (L2 cells [3]): no inhibitory effects
- Inhibition of DNA synthesis (LLC-PK1 cells [4]): no inhibitory effects
- Amount of cyclosporine per liter of bile as determined with internal standard [5]: 853 µg/L
- Mean % of total concentration of cyclosporine (mean value, n = 5) [5]: 16.00 ± 4.4% and 16%
- Toxicity in vivo (rat): not toxic
- Inhibition of protein synthesis [6]: some inhibitory effects
- Inhibition of RNA synthesis (LLC-PK1 cells [7]): no inhibitory effects
- Inhibition of RNA synthesis [8]: some inhibitory effects
- Inhibition of protein synthesis (LLC-PK1 cells [9]): no inhibitory effects
- Inhibition of protein synthesis (L2 cells [10]): no inhibitory effects
- Ability to inhibit IL2 production, compared to CsA (IL2 production): comparable effects

Structure (SMILES): CC[C@@H]1NC(=O)[C@H]([C@H](O)[C@H](C)C/C=C/CO)N(C)C(=O)[C@H](C(C)C)N(C)C(=O)[C@H](CC(C)C)N(C)C(=O)[C@H](CC(C)(C)O)N(C)C(=O)[C@@H](C)NC(=O)[C@H](C)NC(=O)[C@H](CC(C)C)N(C)C(=O)[C@H](C(C)C)NC(=O)[C@H](CC(C)C)N(C)C(=O)CN(C)C1=O [OL-8, 1,9 dihydroxy cyclosporine A]
- Inhibition of DNA synthesis (L2 cells [1]): no inhibitory effects
- Inhibition of DNA synthesis [2]: some inhibitory effects
- Inhibition of RNA synthesis (L2 cells [3]): no inhibitory effects
- Inhibition of DNA synthesis (LLC-PK1 cells [4]): no inhibitory effects
- Amount of cyclosporine per liter of bile as determined with internal standard [5]: 640 µg/L
- Mean % of total concentration of cyclosporine (mean value, n = 5) [5]: 10.86 ± 2.4% and 11%
- Inhibition of protein synthesis [6]: some inhibitory effects
- Inhibition of RNA synthesis (LLC-PK1 cells [7]): no inhibitory effects
- Inhibition of RNA synthesis [8]: some inhibitory effects
- Inhibition of protein synthesis (LLC-PK1 cells [9]): no inhibitory effects
- Inhibition of protein synthesis (L2 cells [10]): no inhibitory effects
